Results: patent US4452985A, “2-Guanyl-4-(substituted phenyl) thiazole derivatives” (American Home Products Corporation, priority 1983, dated 1984)
Counter-ions that a name gives are not always drawn. Like-named read-outs stand apart in the source and are kept apart here. Values belong to the compound of their own block, whether it stands above or below them.

Tests used:
[1] = cited from earlier work
[2] = system: gastric acid secretion; test: Gastric secretion in the pylorus-ligated rat (modified Shay procedure); format: in vivo; details: intraduodenal, 4 hours after ligation, read-out: % Inhibition of acid output; for inhibition in vivo at 16 mg/kg: 16 mg/kg i.d.; for inhibition in vivo at 32 mg/kg: 32 mg/kg i.d.; for inhibition in vivo at 4 mg/kg: 4 mg/kg i.d.
Method: The procedure for testing gastric secretion in the rat, a modification of the procedure of Shay et al., Gastroenterology, 26, 906-13 (1954) is carried out as follows:
Male Charles River rats weighing 200-300 grams are deprived of food but not water for 24 hours prior to use. Water is, however, withheld during the experiment. The rats are weighed, anesthetized, and the pylorus ligated according to the method of Shay et al. Treatment or vehicle control is then administered interduodenally (i.d.). Rats are housed 2/cage and sacrificed with CO2 four hours after ligation. The stomachs are removed, rinsed, and contents emptied into a graduated centrifuge tube. The tubes are centrifuged for 20 minutes at 2,000 RPM and the volume of gastric juice recorded. Any samples obviously contaminated by feces, food or hemolysis are eliminated. An aliquot of each is frozen for later analysis of Na^+, K^+ and Cl^- concentration. The pH is measured and 1 ml. of gastric juice is titrated with 0.1 N NaOH to a pH of 7.0-7.4. Titratable acid output is calculated in microequivalents and the percent inhibition of acid output is calculated as follows: [formula]

[3] = target: T1, H2 histamine receptors (Cavia porcellus, UniProt P47747); test: Guinea pig heart (spontaneously beating right atrium) test: antagonism of histamine-induced positive chronotropic response; format: cell-based; details: 30 min preincubation, 32 °C, pH 7.4
T1 construct: from tissue; host or cells: guinea pig right atrium (spontaneously beating)
Method: The guinea pig heart atrium test is carried out as follows:
A guinea pig right atrium is suspended at 1 g. tension (isometric) in a thermostatically controlled (32° C.) tissue bath (10 ml.) containing oxygenated (95% O2; 5% CO2) Krebs-Haenseleit buffer (pH 7.4). The tissue is allowed to stabilize over 1 hour. Individual contractions are recorded with a force-displacement transducer through a strain gauge coupler. A control dose-response curve to histamine in the above described tissue bath is obtained after which the tissue is washed 3 times and allowed to re-equilibrate to basal rate. The test compound is added to the tissue bath at the desired final concentration. Thirty minutes after addition of the compound, a fresh histamine dose response curve is again obtained. Then the response to histamine in the presence of antagonist is compared to the histamine control response. This procedure is repeated, using fresh tissues, for each concentration of antagonist tested.

[4] = system: H2 histamine receptors; details: cited from earlier work
[5] = histamine dose-response, three experiments, read-out: pA2 Value (apparent dissociation constant of the H2 antagonist) (converted)
[6] = values marked *: result of only one experiment, read-out: pKB value (converted)

T1 sequence (P47747 whole entry): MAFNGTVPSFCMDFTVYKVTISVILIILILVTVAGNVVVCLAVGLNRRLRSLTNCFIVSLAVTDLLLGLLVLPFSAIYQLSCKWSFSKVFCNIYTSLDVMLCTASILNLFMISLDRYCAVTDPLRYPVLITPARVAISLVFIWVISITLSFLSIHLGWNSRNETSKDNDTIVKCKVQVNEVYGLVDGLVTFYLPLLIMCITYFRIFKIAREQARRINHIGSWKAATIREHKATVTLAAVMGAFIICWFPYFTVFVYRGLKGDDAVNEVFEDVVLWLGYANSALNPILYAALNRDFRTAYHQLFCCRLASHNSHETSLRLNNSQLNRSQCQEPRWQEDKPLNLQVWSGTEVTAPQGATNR

SMILES: CN/C(=N/CCSCc1nc[nH]c1C)NC#N [Cimetidine]
- tendency to cause confusional states ([1]; elderly patients): tendency to cause confusional states in elderly patients
- anti-androgenic activity ([1]; patients): anti-androgenic activity
- duration of action ([1]; patients): short duration of action

SMILES: N#Cc1ccc(-c2csc(NC(=N)N)n2)cc1 [Example 1, [4-(4-Cyanophenyl)-2-Thiazolyl]Guanidine, Hydrobromide]
- inhibition in vivo at 16 mg/kg [2]: 50%

SMILES: N#CCc1ccc(-c2csc(NC(=N)N)n2)cc1 [Example 2, [4-[4-(Cyanomethyl)Phenyl]-2-Thiazolyl]Guanidine, Hydrobromide]
- inhibition in vivo at 32 mg/kg [2]: 79%

SMILES: N=C(N)Nc1nc(-c2cccc(C(N)=NO)c2)cs1 [Example 5, 3-[2-[(Aminoiminomethyl)Amino]-4-Thiazolyl]-N-Hydroxybenzenecarboximidamide, Dihydrochloride]
- Kb [3, 5]: 0.0501 µM
- inhibition in vivo at 32 mg/kg [2]: 68%

SMILES: N=C(N)Nc1nc(-c2cccc(-c3noc(C(F)(F)F)n3)c2)cs1 [Example 8, [4-[3-[5-(Trifluoromethyl)-1,2,4-Oxadiazol-3-yl]Phenyl]-2-Thiazoyl]Guanidine, Hydrochloride]
- inhibition in vivo at 32 mg/kg [2]: 84%

SMILES: N=C(N)Nc1nc(-c2cccc(C(=N)N)c2)cs1 [Example 9, 3-[2-[(Aminoiminomethyl)Amino]-4-Thiazolyl]Benzenecarboximidamide, Dihydrobromide, Hemiethanolate]
- Kb [3, 5]: 0.00501 µM
- inhibition in vivo at 32 mg/kg [2]: 55%

SMILES: CCOC(=N)c1cccc(-c2csc(NC(=N)N)n2)c1 [Example 10, 3-[2-[(Aminoiminomethyl)Amino]-4-Thiazolyl]Benzenecarboximidic Acid Ethyl Ester]
- inhibition in vivo at 4 mg/kg [2]: 41%

SMILES: N=C(N)Nc1nc(-c2cccc(C(N)=O)c2)cs1 [Example 11, 3-[2-[(Aminoiminomethyl)Amino]-4-Thiazolyl]Benzenecarboxamide, Hydrobromide]
- Kb [3, 6]: 0.0501 µM

SMILES: CNC(=NC#N)NCCSCc1csc(N=C(N)N)n1 [tiotidine]
- H2 antagonist activity relative to cimetidine (in words) [4]: greater activity than cimetidine

The next lines start with results.

- Kb [3, 5]: 0.251 µM
SMILES: N#Cc1cccc(-c2csc(NC(=N)N)n2)c1 [Example 3, [4-(3-Cyanophenyl)-2-Thiazolyl]Guanidine, Hydrobromide, Hydrate]
- inhibition in vivo at 4 mg/kg [2]: 40%

- pKB value ([3]; values marked *: result of only one experiment): 6.1
SMILES: N=C(N)Nc1nc(-c2cccc(C(=O)O)c2)cs1 [Example 4, 3-[2-[(Aminoiminomethyl)Amino]-4-Thiazolyl]Benzoic Acid, Hydrochloride]

- Kb [3, 5]: 0.0631 µM
SMILES: N=C(N)Nc1nc(-c2cccc(C(N)=NOC(N)=O)c2)cs1 [Example 6, N-[(Aminocarbonyl)oxy]-3-[2-[(Aminoiminomethyl)Amino]-4-Thiazolyl]Benzenecarboximidamide, Hydrochloride, Hemihydrate]

- Kb [3, 5]: 0.0398 µM
SMILES: CC(=O)ON=C(N)c1cccc(-c2csc(NC(=N)N)n2)c1 [Example 7, N-(Acetyloxy)-3-[[2-[(Aminoiminomethyl)Amino]-4-Thiazolyl]Benzenecarboximidamide, Dihydrochloride]

- Kb [3, 6]: 0.00631 µM
SMILES: CN=C(N)c1cccc(-c2csc(NC(=N)N)n2)c1 [Example 12, 3-[2-[(Aminoiminomethyl)Amino]-4-Thiazolyl]-N-Methylbenzenecarboximidamide,Quarter Hydrate]
- inhibition in vivo at 16 mg/kg [2]: 75%

- Kb [3, 6]: 0.0794 µM
SMILES: N=C(N)Nc1nc(-c2cccc(C(=O)NN)c2)cs1 [Example 13, 3-[2-[(Aminoiminomethyl)Amino]-4-Thiazolyl]Benzoic Acid Hydrazide, Hydrochloride]
